Test system: 242566-281-R-J2-PDC complex spheroid viability
Assay: Anticancer human tumor 242566-281-R-J2-PDC patient-derived pancreatic carcinoma cell line growth inhibition [CLK]
Settings: for IC50: curve of first compound; for viability, T/C: stronger effect = lower value; active = viability on the fitted dose curve at most 10% of control; inactive = the rest
Outline: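 Patient-derived tumor cells grown as complex spheroids with HUVEC endothelial cells and mesenchymal stem cells, treated with drug combinations. Concentrations descend in half-log steps from near clinical Cmax, or from 10 microM if Cmax unknown.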

[1] = second compound 0.0316 µM, first compound 0.0316 µM
[2] = second compound 0.0316 µM, first compound 0.1 µM
[3] = second compound 0.0316 µM, first compound 0.316 µM
[4] = second compound 0.0316 µM, first compound 1 µM
[5] = second compound 0.0316 µM, first compound 3.16 µM
[6] = second compound 0.0316 µM, first compound 10 µM
[7] = second compound 0.1 µM, first compound 0.0316 µM
[8] = second compound 0.1 µM, first compound 0.1 µM
[9] = second compound 0.1 µM, first compound 0.316 µM
[10] = second compound 0.1 µM, first compound 1 µM
[11] = second compound 0.1 µM, first compound 3.16 µM
[12] = second compound 0.1 µM, first compound 10 µM
[13] = second compound 0.316 µM, first compound 0.0316 µM
[14] = second compound 0.316 µM, first compound 0.1 µM
[15] = second compound 0.316 µM, first compound 0.316 µM
[16] = second compound 0.316 µM, first compound 1 µM
[17] = second compound 0.316 µM, first compound 3.16 µM
[18] = second compound 0.316 µM, first compound 10 µM
[19] = second compound 1 µM, first compound 0.0316 µM
[20] = second compound 1 µM, first compound 0.1 µM
[21] = second compound 1 µM, first compound 0.316 µM
[22] = second compound 1 µM, first compound 1 µM
[23] = second compound 1 µM, first compound 3.16 µM
[24] = second compound 1 µM, first compound 10 µM
[25] = second compound 3.16 µM, first compound 0.0316 µM
[26] = second compound 3.16 µM, first compound 0.1 µM
[27] = second compound 3.16 µM, first compound 0.316 µM
[28] = second compound 3.16 µM, first compound 1 µM
[29] = second compound 3.16 µM, first compound 3.16 µM
[30] = second compound 3.16 µM, first compound 10 µM
[31] = second compound 10 µM, first compound 0.0316 µM
[32] = second compound 10 µM, first compound 0.1 µM
[33] = second compound 10 µM, first compound 0.316 µM
[34] = second compound 10 µM, first compound 1 µM
[35] = second compound 10 µM, first compound 3.16 µM
[36] = second compound 10 µM, first compound 10 µM
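Also: spheroids exposed to compounds for 7 days before readout.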
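For viability, T/C in this document: 100% = DMSO vehicle control wells.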

C#Cc1c(F)ccc2cc(O)cc(-c3ncc4c(N5CC6CCC(C5)N6)nc(OCC56CCCN5CC(F)C6)nc4c3F)c12 (stereo not given) + CNC(=O)c1ccc(Nc2nc(OC3CCCC3)c3c(-c4ccc5nc(C)oc5c4)c[nH]c3n2)c(OC)c1
1.43 µM: IC50 (second compound 0.1 µM)
inactive: viability, T/C [1] 106% | viability, T/C [2] 89.4% | viability, T/C [3] 68.1% | viability, T/C [4] 60.8% | viability, T/C [5] 52.1% | viability, T/C [6] 45.6% | viability, T/C [7] 109% | viability, T/C [8] 92.9% | viability, T/C [9] 67.6% | viability, T/C [10] 55.3% | viability, T/C [11] 42.2% | viability, T/C [12] 32.9% | viability, T/C [13] 81.7% | viability, T/C [14] 66.7% | viability, T/C [15] 52.2% | viability, T/C [16] 39.3% | viability, T/C [17] 36.5% | viability, T/C [18] 22.3% | viability, T/C [19] 48.4% | viability, T/C [20] 29% | viability, T/C [21] 22.9% | viability, T/C [22] 16.5% | viability, T/C [23] 13.4% | viability, T/C [24] 15.5% | viability, T/C [25] 20.3% | viability, T/C [26] 17.5% | viability, T/C [27] 15.9% | viability, T/C [28] 11.8% | viability, T/C [29] 10.9% | viability, T/C [31] 17.5% | viability, T/C [32] 14.5% | viability, T/C [33] 13.2% | viability, T/C [34] 10.8%
4.27 µM: IC50 (second compound 0.0316 µM)
< 0.0316 µM: IC50 (second compound 1 µM) | IC50 (second compound 3.16 µM) | IC50 (second compound 10 µM)
0.434 µM: IC50 (second compound 0.316 µM)
active: viability, T/C [30] 7.39% | viability, T/C [35] 11.1% | viability, T/C [36] 6.78%

C=C(F)C(=O)N1CCN(c2nc(OCC3CCCN3C)nc3c2CCN(c2cccc4cccc(Cl)c24)C3)CC1CC#N (stereo not given) + CNC(=O)c1ccc(Nc2nc(OC3CCCC3)c3c(-c4ccc5nc(C)oc5c4)c[nH]c3n2)c(OC)c1
1.13 µM: IC50 (second compound 3.16 µM)
0.107 µM: IC50 (second compound 10 µM)
4.99 µM: IC50 (second compound 0.316 µM)
3.34 µM: IC50 (second compound 1 µM)
active: viability, T/C [6] 0.23% | viability, T/C [12] 0.19% | viability, T/C [18] 0.63% | viability, T/C [24] 0.17% | viability, T/C [30] 0.18% | viability, T/C [36] 0.24%
5.78 µM: IC50 (second compound 0.0316 µM)
5.43 µM: IC50 (second compound 0.1 µM)
inactive: viability, T/C [1] 95.6% | viability, T/C [2] 101% | viability, T/C [3] 108% | viability, T/C [4] 101% | viability, T/C [5] 119% | viability, T/C [7] 108% | viability, T/C [8] 78.5% | viability, T/C [9] 83.4% | viability, T/C [10] 105% | viability, T/C [11] 94.4% | viability, T/C [13] 82.2% | viability, T/C [14] 76.3% | viability, T/C [15] 69.7% | viability, T/C [16] 88.6% | viability, T/C [17] 95% | viability, T/C [19] 73.3% | viability, T/C [20] 64.4% | viability, T/C [21] 65.5% | viability, T/C [22] 65% | viability, T/C [23] 52.7% | viability, T/C [25] 63.3% | viability, T/C [26] 51.1% | viability, T/C [27] 50.8% | viability, T/C [28] 53.6% | viability, T/C [29] 19.6% | viability, T/C [31] 54.4% | viability, T/C [32] 45.2% | viability, T/C [33] 50% | viability, T/C [34] 43.9% | viability, T/C [35] 16%

C=CC(=O)N1CCN(c2nc(=O)n(-c3c(C)ccnc3C(C)C)c3nc(-c4c(O)cccc4F)c(F)cc23)C(C)C1 (stereo not given) + CNC(=O)c1ccc(Nc2nc(OC3CCCC3)c3c(-c4ccc5nc(C)oc5c4)c[nH]c3n2)c(OC)c1
inactive: viability, T/C [1] 104% | viability, T/C [2] 94% | viability, T/C [3] 120% | viability, T/C [4] 128% | viability, T/C [5] 89% | viability, T/C [6] 73.9% | viability, T/C [7] 101% | viability, T/C [8] 115% | viability, T/C [9] 87.7% | viability, T/C [10] 104% | viability, T/C [11] 88.1% | viability, T/C [12] 70.9% | viability, T/C [13] 95.7% | viability, T/C [14] 92% | viability, T/C [15] 74.3% | viability, T/C [16] 87.1% | viability, T/C [17] 71.1% | viability, T/C [18] 67.3% | viability, T/C [19] 79.3% | viability, T/C [20] 68.1% | viability, T/C [21] 72.5% | viability, T/C [22] 69.6% | viability, T/C [23] 70.7% | viability, T/C [24] 57.2% | viability, T/C [25] 60.5% | viability, T/C [26] 52.6% | viability, T/C [27] 52.9% | viability, T/C [28] 56.4% | viability, T/C [29] 58.1% | viability, T/C [30] 54.8% | viability, T/C [31] 54.5% | viability, T/C [32] 53.6% | viability, T/C [33] 58.8% | viability, T/C [34] 53% | viability, T/C [35] 53.6% | viability, T/C [36] 51.8%
> 10 µM: IC50 (second compound 0.0316 µM) | IC50 (second compound 0.1 µM) | IC50 (second compound 0.316 µM) | IC50 (second compound 1 µM) | IC50 (second compound 3.16 µM) | IC50 (second compound 10 µM)

CCCS(=O)(=O)Nc1ccc(F)c(C(=O)c2c[nH]c3ncc(-c4ccc(Cl)cc4)cc23)c1F + CNC(=O)c1ccc(Nc2nc(OC3CCCC3)c3c(-c4ccc5nc(C)oc5c4)c[nH]c3n2)c(OC)c1
active: viability, T/C [6] 7.61% | viability, T/C [12] 6.61%
< 0.0316 µM: IC50 (second compound 10 µM)
inactive: viability, T/C [1] 89.8% | viability, T/C [2] 99.1% | viability, T/C [3] 86.6% | viability, T/C [4] 125% | viability, T/C [5] 104% | viability, T/C [7] 82.2% | viability, T/C [8] 92.3% | viability, T/C [9] 88.2% | viability, T/C [10] 76.7% | viability, T/C [11] 87.9% | viability, T/C [13] 74.5% | viability, T/C [14] 81.1% | viability, T/C [15] 59.9% | viability, T/C [16] 63.1% | viability, T/C [17] 61.3% | viability, T/C [18] 10.2% | viability, T/C [19] 75.2% | viability, T/C [20] 63.2% | viability, T/C [21] 66.7% | viability, T/C [22] 64.8% | viability, T/C [23] 42.6% | viability, T/C [24] 11.8% | viability, T/C [25] 54.9% | viability, T/C [26] 50.6% | viability, T/C [27] 50.2% | viability, T/C [28] 44.6% | viability, T/C [29] 26.5% | viability, T/C [30] 16.4% | viability, T/C [31] 49.2% | viability, T/C [32] 47% | viability, T/C [33] 53% | viability, T/C [34] 47% | viability, T/C [35] 30.1% | viability, T/C [36] 17.9%
2.14 µM: IC50 (second compound 1 µM)
0.379 µM: IC50 (second compound 3.16 µM)
5.31 µM: IC50 (second compound 0.1 µM)
3.85 µM: IC50 (second compound 0.316 µM)
5.93 µM: IC50 (second compound 0.0316 µM)

COC1C=CCC(C)C(C)S(=O)(=O)NC(=O)c2ccc3c(c2)N(CC2CCC21)CC1(CCCc2cc(Cl)ccc21)CO3 (stereo not given) + CNC(=O)c1ccc(Nc2nc(OC3CCCC3)c3c(-c4ccc5nc(C)oc5c4)c[nH]c3n2)c(OC)c1
0.404 µM: IC50 (second compound 0.316 µM)
< 0.0316 µM: IC50 (second compound 3.16 µM) | IC50 (second compound 10 µM)
5.24 µM: IC50 (second compound 0.0316 µM)
inactive: viability, T/C [1] 95.8% | viability, T/C [2] 91.9% | viability, T/C [3] 72% | viability, T/C [4] 84.9% | viability, T/C [5] 67.5% | viability, T/C [6] 29.1% | viability, T/C [7] 94.7% | viability, T/C [8] 74.8% | viability, T/C [9] 65.4% | viability, T/C [10] 84.3% | viability, T/C [11] 91.4% | viability, T/C [12] 26.8% | viability, T/C [13] 84.9% | viability, T/C [14] 64.7% | viability, T/C [15] 50.6% | viability, T/C [16] 42.3% | viability, T/C [17] 39.1% | viability, T/C [18] 25.9% | viability, T/C [19] 64.9% | viability, T/C [20] 55.3% | viability, T/C [21] 38.5% | viability, T/C [22] 29.1% | viability, T/C [23] 25.6% | viability, T/C [24] 19.6% | viability, T/C [25] 49.6% | viability, T/C [26] 40.1% | viability, T/C [27] 30.7% | viability, T/C [28] 20.8% | viability, T/C [29] 18.1% | viability, T/C [30] 14.2% | viability, T/C [31] 42.9% | viability, T/C [32] 41.2% | viability, T/C [33] 30.8% | viability, T/C [34] 18.3% | viability, T/C [35] 13.5% | viability, T/C [36] 12.1%
6.17 µM: IC50 (second compound 0.1 µM)
0.139 µM: IC50 (second compound 1 µM)
